According to PubChem BioAssay AID1963849 (Molecular Pharmacology Branch, DTP, NCI, 2024):

Test system: 299254-011-R-J1-PDC complex spheroid viability
Experiment: Anticancer human tumor 299254-011-R-J1-PDC patient-derived melanoma cell line growth inhibition [POLQ]
Conditions: for IC50: curve of first compound; for viability, T/C: stronger effect = lower value; active means viability on the fitted dose curve at most 10% of control; inactive means the rest
Method: Multicellular complex tumor spheroid response to Polymerase (POL) inhibitors (novobiocin, ART-558, RP6685) in combination with a variety of drugs and investigational agents in selected tumor cell lines
The POL inhibitors (novobiocin, ART-558, and RP6685) were evaluated both individually and in combination with standard of care and investigational anticancer small molecules within a complex spheroid model of solid tumors. . Complex spheroids include a stromal component modeled by human endothelial cells (HUVEC) and fibroblasts modeled by human mesenchymal stem cells (MSCs). The concentration ranges selected for each drug and investigational agent were based upon clinically achievable concentrations if the clinical Cmax of the agent was known.
Compounds. The drugs and investigational agents: novobiocin (NSC847541), ART-558 (NSC835418), RP-6685 (NSC848927), peposertib (NSC802822), ceralasertib (NSC780249), elimusertib (NSC800525), camonsertib (NSC841442), AZD-1390 (NSC803789), olaparib (NSC753686), talazoparib (NSC767125), rucaparib (NSC756644), sotorasib (NSC818433), MRTX-1133 (NSC836407), SN-38 (NSC673596), topotecan (NSC609699), epotoside (NSC141540), doxorubicin (NSC123127), gemcitabine (NSC613327), 5-fluorouracil (NSC19893), paclitaxel (NSC125973), vemurafenib (NSC761431), MSA-2 (NSC828583), SN-011 (NSC837082), adavosertib (NSC754352), prexasertib (NSC758257), carboplatin (NSC241240) and oxaliplatin (NSC266046), were obtained from the National Cancer Institute (NCI) Developmental Therapeutics Program Chemical Repository (21). The FDA-approved anticancer drug set is available from the Developmental Therapeutics Program at https://dtp.cancer.gov/organization/dscb/obtaining/. […] The stock solutions were prepared in dimethyl sulfoxide (DMSO, Sigma-Aldrich, St. Louis, MO, cat. D2650), except for the platinum compounds which were prepared in saline (Quality Biological, Gaithersburg, MD, cat. 114-055-101), at 800-fold the tested concentration and stored at -70 degrees C prior to their use. All drugs and investigational agents were tested over a range starting from a high concentration at or near the clinical Cmax and decreasing in half-log increments. If the clinical Cmax for an agent had not been determined, the highest concentration tested was 10 microM, except for SN-38, which was tested at a high concentration of 1 microM.
Cell Culture. All cells were maintained in an incubator at 37 degrees C and 5% CO2 with 95% humidity. The PDC lines were cultured according to standard operating procedures established by the NCI PDMR (https://pdmr.cancer.gov). Table 3 of the manuscript, lists the cell lines along with the number of the three cell types plated to form the mct-spheroids and media for tumor cell growth. After thawing, all PDC lines, except 997537-175-T-J1-PDC and 415267-285-R-J2-PDC, were cultured in Matrigel-coated flasks prepared with a working solution of 1X Ham's F-12 nutrient mix, without supplementation (Thermo Fisher Scientific, cat. 11765054), 100 U/mL penicillin-streptomycin (Thermo Fisher Scientific, cat. 15140122), and 2.5% Matrigel (Corning Inc., Corning, NY, cat. 354248) for the first three passages. The two PDC lines 997537-175-T-J1-PDC and 415267-285-R-J2-PDC were cultured on uncoated flasks. The 857933-349-R-J2-PDC line was cultured in 6C/Colon 1B media containing advanced DMEM/F-12 (Thermo Fisher Scientific, cat. 12634028), 10 mM HEPES (Thermo Fisher Scientific, cat. 15630080), 1X GlutaMAX supplement (Thermo Fisher Scientific, cat. 35050061), 0.1 mg/mL primocin (InvivoGen, San Diego, CA, cat. ant-pm-2), 10% defined fetal bovine serum, heat inactivated (HyClone Laboratories Inc., Logan, UT, cat. SH30070.03HI), 50% L-WRN conditioned media (ATCC, cat. CRL-3276), 1.25 mM N-Acetyl-L-cysteine (Sigma-Aldrich, cat. A9165), 10 mM nicotinamide (Sigma-Aldrich, cat. N0636), 1X B-27 supplement (Thermo Fisher Scientific, cat. 17504044), 1X N-2 supplement (Thermo Fisher Scientific, cat. […]
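Further: spheroids exposed to drugs for one week before measurement.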
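Wherever viability, T/C is given: percent viability relative to DMSO vehicle control taken as 100%.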

CC(=O)O[C@H]1C(=O)[C@@]2(C)[C@H]([C@H](OC(=O)c3ccccc3)[C@]3(O)C[C@H](OC(=O)[C@H](O)[C@@H](NC(=O)c4ccccc4)c4ccccc4)C(C)=C1C3(C)C)[C@]1(OC(C)=O)CO[C@@H]1C[C@@H]2O + COC1C(OC(N)=O)C(O)C(Oc2ccc3c(O)c(NC(=O)c4ccc(O)c(CC=C(C)C)c4)c(=O)oc3c2C)OC1(C)C
71.9 nM: IC50 (second compound 0.316 µM) | IC50 (second compound 1 µM)
108 nM: IC50 (second compound 0.0316 µM)
70.7 nM: IC50 (second compound 0.1 µM)
90.2 nM: IC50 (second compound 10 µM)
124 nM: IC50 (second compound 3.16 µM)
inactive: viability, T/C (second compound 0.0316 µM, first compound 0.00949 µM) 77.3% | viability, T/C (second compound 0.0316 µM, first compound 0.03 µM) 75.9% | viability, T/C (second compound 0.0316 µM, first compound 0.0949 µM) 53.4% | viability, T/C (second compound 0.0316 µM, first compound 0.3 µM) 23.2% | viability, T/C (second compound 0.0316 µM, first compound 0.949 µM) 21.8% | viability, T/C (second compound 0.0316 µM, first compound 3 µM) 15.9% | viability, T/C (second compound 0.1 µM, first compound 0.00949 µM) 97% | viability, T/C (second compound 0.1 µM, first compound 0.03 µM) 63.3% | viability, T/C (second compound 0.1 µM, first compound 0.0949 µM) 46.7% | viability, T/C (second compound 0.1 µM, first compound 0.3 µM) 30.9% | viability, T/C (second compound 0.1 µM, first compound 0.949 µM) 21.4% | viability, T/C (second compound 0.1 µM, first compound 3 µM) 16% | viability, T/C (second compound 0.316 µM, first compound 0.00949 µM) 101% | viability, T/C (second compound 0.316 µM, first compound 0.03 µM) 73.1% | viability, T/C (second compound 0.316 µM, first compound 0.0949 µM) 41.4% | viability, T/C (second compound 0.316 µM, first compound 0.3 µM) 29.5% | viability, T/C (second compound 0.316 µM, first compound 0.949 µM) 21.2% | viability, T/C (second compound 0.316 µM, first compound 3 µM) 20% | viability, T/C (second compound 1 µM, first compound 0.00949 µM) 95.1% | viability, T/C (second compound 1 µM, first compound 0.03 µM) 70% | viability, T/C (second compound 1 µM, first compound 0.0949 µM) 43.8% | viability, T/C (second compound 1 µM, first compound 0.3 µM) 27.1% | viability, T/C (second compound 1 µM, first compound 0.949 µM) 22.2% | viability, T/C (second compound 1 µM, first compound 3 µM) 18.3% | viability, T/C (second compound 3.16 µM, first compound 0.00949 µM) 90.7% | viability, T/C (second compound 3.16 µM, first compound 0.03 µM) 68.3% | viability, T/C (second compound 3.16 µM, first compound 0.0949 µM) 61.3% | viability, T/C (second compound 3.16 µM, first compound 0.3 µM) 31.5% | viability, T/C (second compound 3.16 µM, first compound 0.949 µM) 22.6% | viability, T/C (second compound 3.16 µM, first compound 3 µM) 16.8% | viability, T/C (second compound 10 µM, first compound 0.00949 µM) 86.6% | viability, T/C (second compound 10 µM, first compound 0.03 µM) 84.9% | viability, T/C (second compound 10 µM, first compound 0.0949 µM) 47.1% | viability, T/C (second compound 10 µM, first compound 0.3 µM) 28% | viability, T/C (second compound 10 µM, first compound 0.949 µM) 21.6% | viability, T/C (second compound 10 µM, first compound 3 µM) 17.6%
